Reference: patent publication EP4725941A1, “ARYLAMIDE DERIVATIVE HAVING ANTITUMOR ACTIVITY” (priority 2020, dated 2021)
Where two headings read alike, the source gives them in different places.

Experiments:
MEK1 = target: T1, MEK1 (Homo sapiens, UniProt Q02750); experiment: MEK1-inhibiting activity, fluorescent polarization method (CRAF/MEK1/ERK2 cascade, IMAP); format: biochemical; conditions: Table 3; read-out: MEK1 IC50
T1 construct: purchased Thermo Fisher Scientific Inc. (MEK1, CRAF); Carna Biosciences, Inc. (ERK2)
T1 sequence (Q02750 whole entry): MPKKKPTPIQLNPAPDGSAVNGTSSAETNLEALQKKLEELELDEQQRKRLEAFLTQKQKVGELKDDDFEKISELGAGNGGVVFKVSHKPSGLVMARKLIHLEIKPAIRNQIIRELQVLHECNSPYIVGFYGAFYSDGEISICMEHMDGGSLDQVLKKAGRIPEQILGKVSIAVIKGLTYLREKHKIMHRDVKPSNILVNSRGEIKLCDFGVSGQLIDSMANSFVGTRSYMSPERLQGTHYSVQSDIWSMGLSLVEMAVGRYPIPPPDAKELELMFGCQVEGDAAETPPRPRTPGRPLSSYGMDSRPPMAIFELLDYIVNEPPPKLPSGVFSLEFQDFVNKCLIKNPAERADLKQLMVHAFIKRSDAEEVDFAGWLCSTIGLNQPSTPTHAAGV
Procedure: The MEK1-inhibiting activity of the compounds listed in Table 3 below were evaluated by the fluorescent polarization method as described below.

[1] = Human liver microsome stability; format: in vitro ADME; conditions: human liver microsomes, pH 7.4
BRAF = target: T2, BRAF (Homo sapiens, UniProt P15056); experiment: BRAF-inhibiting activity, time-resolved fluorescence-fluorescence resonance energy transfer assay; format: biochemical
T2 construct: purchased Eurofins Genomics KK; (BRAF); Thermo Fisher Scientific Inc. (MEK1)
T2 sequence (P15056 417-766 limits assumed): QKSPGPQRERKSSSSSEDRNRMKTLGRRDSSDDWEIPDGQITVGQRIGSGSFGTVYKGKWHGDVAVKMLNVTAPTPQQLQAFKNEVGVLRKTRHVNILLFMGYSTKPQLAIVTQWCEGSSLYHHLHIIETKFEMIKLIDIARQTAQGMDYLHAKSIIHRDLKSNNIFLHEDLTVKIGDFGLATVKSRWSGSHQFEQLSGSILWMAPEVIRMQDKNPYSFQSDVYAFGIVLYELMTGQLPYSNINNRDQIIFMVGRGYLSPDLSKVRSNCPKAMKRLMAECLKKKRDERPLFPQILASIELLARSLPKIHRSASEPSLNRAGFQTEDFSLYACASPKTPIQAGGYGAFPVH
Procedure: The BRAF-inhibiting activity of the compounds listed in Table 3 below was evaluated by the time-resolved fluorescence-fluorescence resonance energy transfer assay as described below.

NCI-H2122 = experiment: Cell proliferation-inhibiting activity (ATP in viable cells, CellTiter-Glo), NCI-H2122; format: cell-based, human; conditions: human lung cancer cells, 4 days, read-out: NCI-H2122 IC50
A549 = experiment: Cell proliferation-inhibiting activity (ATP in viable cells, CellTiter-Glo), A549; format: cell-based, human; conditions: human lung cancer cells, 4 days, read-out: A549 IC50

Row | SMILES | IC50 (MEK1) [nM] | microsomal CLint at 0.99 µM [1] [µL/min/mg] | IC50 (BRAF; read-out: BRAF IC50; Table 3) [nM] | IC50 (NCI-H2122) [nM] | IC50 (A549) [nM] | IC50 (BRAF; Table 3; read-out: BRAF IC50) [nM] | IC50 (NCI-H2122; NCI-H2122, 96 h) [nM] | IC50 (A549; A549, 96 h) [nM]
1 | CNS(=O)(=O)Nc1nccc(Cc2cc(C(=O)NC3CC3)c(Nc3ccc(I)cc3F)c(F)c2F)c1F [Compound A-2, N-cyclopropyl-3,4-difluoro-2-(2-fluoro-4-iodoanilino)-5-[[3-fluoro-2-(methylsulfamoylamino)pyridin-4-yl]methyl]benzamide] | 5 | 25 | 3 | – | – | – | – | –
2 | COCC1(NS(=O)(=O)Nc2nccc(Cc3cc(C(N)=O)c(Nc4ccc(I)cc4F)c(F)c3F)c2F)CC1 [Compound A-16] | 8 | – | – | 3 | 14 | 3 | – | –
3 | NC(=O)c1cc(Cc2ccnc(NS(=O)(=O)NC3C4COCC43)c2F)c(F)c(F)c1Nc1ccc(I)cc1F (stereo not drawn) [Compound A-22, 3,4-Difluoro-2-(2-fluoro-4-iodoanilino)-5-[[3-fluoro-2-(3-oxabicyclo[3. 1.0]hexan-6-ylsulfamoylamino)pyridin-4-yl]methyl]benzamide] | 6 | – | – | 10 | 31 | 2 | – | –
4 | CCNS(=O)(=O)Nc1nccc(Cc2cc(C(=O)NOCCO)c(Nc3ccc(I)cc3F)c(F)c2F)c1F [Compound A-44, 5-[[2-(Ethylsulfamoylamino)-3-fluoropyridin-4-yl]methyl]-3,4-difluoro-2-(2-fluoro-4-iodoanilino)-N-(2-hydroxyethoxy)benzamide] | 2 | – | – | – | – | 19 | 1 | –
5 | CCCNS(=O)(=O)Nc1nccc(Cc2cc(C(=O)NOCCO)c(Nc3ccc(I)cc3F)c(F)c2F)c1F [Compound A-45, 3,4-Difluoro-2-(2-fluoro-4-iodoanilino)-5-[[3-fluoro-2-(propylsulfamoylamino)pyridin-4-yl]methyl]-N-(2-hydroxyethoxy)benzamide] | 2 | – | 6 | – | – | – | 1 | 5
6 | CC1(NS(=O)(=O)Nc2nccc(Cc3cc(C(=O)NC4CC4)c(Nc4ccc(I)cc4F)c(F)c3F)c2F)CCC1 [Compound A-47, N-Cyclopropyl-3,4-difluoro-2-(2-fluoro-4-iodoanilino)-5-[[3-fluoro-2-[(1-methylcyclobutyl)sulfamoylamino]pyridin-4-yl]methyl]benzamide] | 39 | 38 | 21 | – | – | – | 17 | –
7 | CC1(NS(=O)(=O)Nc2cccc(Cc3cc(C(=O)NC4CC4)c(Nc4ccc(I)cc4F)c(F)c3F)c2F)CCC1 [Compound D-10, N-Cyclopropyl-3,4-difluoro-2-(2-fluoro-4-iodoanilino)-5-[[2-fluoro-3-[(1-methylcyclobutyl)sulfamoylamino]phenyl]methyl]benzamide] | 261 | 107 | 34 | – | – | – | 28 | –
8 | CNS(=O)(=O)Nc1cccc(Cc2cc(C(=O)NC3CC3)c(Nc3ccc(C4CC4)cc3F)c(F)c2F)c1F [Compound D-15, N-Cyclopropyl-2-(4-cyclopropyl-2-fluoroanilino)-3,4-difluoro-5-[[2-fluoro-3-(methylsulfamoylamino)phenyl]methyl]benzamide] | 1240 | 91 | 17 | – | – | – | – | –
9 | CNS(=O)(=O)Nc1nccc(Cc2cc(C(=O)NC3CC3)c(Nc3ccc(C4CC4)cc3F)c(F)c2F)c1F [Compound G-1, N-Cyclopropyl-2-(4-cyclopropyl-2-fluoroanilino)-3,4-difluoro-5-[[3-fluoro-2-(methylsulfamoylamino)pyridin-4-yl]methyl]benzamide] | 222 | 32 | 12 | – | – | – | – | –
10 | CCS(=O)(=O)Nc1nccc(Cc2cc(C(=O)NC3CC3)c(Nc3ccc(C4CC4)cc3F)c(F)c2F)c1F [Compound G-7, N-Cyclopropyl-2-(4-cyclopropyl-2-fluoroanilino)-5-[[2-(ethylsulfonylamino)-3-fluoropyridin-4-yl]methyl]-3,4-difluorobenzamide] | 2470 | 21 | 46 | – | – | – | 75 | –
11 | NC(=O)c1cc(Cc2ccnc(NS(=O)(=O)NC3CC3)c2F)c(F)cc1Nc1ccc(I)cc1F [Compound I-3, 5-[[2-(Cyclopropylsulfamoylamino)-3-fluoropyridin-4-yl]methyl]-4-flu oro-2-(2-fluoro-4-iodoanilino)benzamide] | 55 | 16 | 2 | – | – | – | – | –
12 | COCCNS(=O)(=O)Nc1nccc(Cc2cc(C(N)=O)c(Nc3ccc(I)cc3F)cc2F)c1F [Compound I-4, 4-Fluoro-2-(2-fluoro-4-iodoanilino)-5-[[3-fluoro-2-(2-methoxyethylsulfamoylamino)pyridin-4-yl]methyl]benzamide] | 275 | 25 | 4 | – | – | – | 83 | –
13 | COCCNS(=O)(=O)Nc1nccc(Cc2cc(C(N)=O)c(Nc3ccc(I)cc3F)n(C)c2=O)c1F [Compound J-2, 2-(2-Fluoro-4-iodoanilino)-5-[[3-fluoro-2-(2-methoxyethylsulfamoylamino)pyridin-4-yl]methyl]-1-methyl-6-oxopyridine-3-carboxamide] | 495 | 16 | 11 | – | – | – | 130 | –
14 | CNS(=O)(=O)Nc1nccc(Cc2cc(C(N)=O)c(Nc3ccc(C4CC4)cc3F)n(C)c2=O)c1F [Compound J-3, 2-(4-Cyclopropyl-2-fluoroanilino)-5-[[3-fluoro-2-(methylsulfamoylamino)pyridin-4-yl]methyl]-1-methyl-6-oxopyridine-3-carboxamide] | 308 | 23 | 11 | – | – | – | – | –
15 | COCCNS(=O)(=O)Nc1nccc(Cc2cc(C(=O)NOC)c(Nc3ccc(I)cc3F)n(C)c2=O)c1F [Compound J-9, 2-(2-Fluoro-4-iodoanilino)-5-[[3-fluoro-2-(2-methoxyethylsulfamoylamino)pyridin-4-yl]methyl]-N-methoxy-1-methyl-6-oxopyridine-3-carbox amide] | 64 | 23 | 3 | – | – | – | 17 | –
16 | CCS(=O)(=O)Nc1cc(Cc2cc(C(N)=O)c(Nc3ccc(I)cc3F)n(C)c2=O)ccn1 [Compound J-12, 5-[[2-(Ethylsulfonylamino)pyridin-4-yl]methyl]-2-(2-fluoro-4-iodoanilino)-1-methyl-6-oxopyridine-3-carboxamide] | 2290 | 19 | – | – | – | – | 180 | –
17 | Cn1c(Nc2ccc(I)cc2F)c(C(N)=O)cc(Cc2ccnc(NS(=O)(=O)NC3CC3)c2F)c1=O [Compound J-13, 5-[[2-(Cyclopropylsulfamoylamino)-3-fluoropyridin-4-yl]methyl]-2-(2-fluoro-4-iodoanilino)-1-methyl-6-oxopyridine-3-carboxamide] | 29 | 39 | 4 | – | – | – | 80 | –
18 | CCNS(=O)(=O)Nc1nccc(Cc2cc(C(N)=O)c(Nc3ccc(I)cc3F)n(C)c2=O)c1F [Compound J-14, 5-[[2-(ethylsulfamoylamino)-3-fluoropyridin-4-yl]methyl]-2-(2-fluoro-4-iodoanilino)-1-methyl-6-oxopyridine-3-carboxamide] | 22 | 34 | 3 | – | – | – | 37 | –
19 | Cn1c(Nc2ccc(I)cc2F)c(C(N)=O)cc(Cc2ccnc(NS(=O)(=O)NC3(C)CCC3)c2F)c1=O [Compound J-15, 2-(2-Fluoro-4-iodoanilino)-5-[[3-fluoro-2-[(1-methylcyclobutyl)sulfamoylamino]pyridin-4-yl]methyl]-1-methyl-6-oxopyridine-3-carboxamide] | 56 | 225 | 12 | – | – | – | 46 | –
20 | CCCNS(=O)(=O)Nc1nccc(Cn2cc(C(N)=O)c(Nc3ccc(I)cc3F)c(F)c2=O)c1F [Compound N-2, 5-Fluoro-4-(2-fluoro-4-iodoanilino)-1-[[3-fluoro-2-(propylsulfamoylamino)pyridin-4-yl]methyl]-6-oxopyridine-3-carboxamide] | 1 | 11 | 1 | – | – | – | 60 | –
21 | CCS(=O)(=O)Nc1nccc(Cn2cc(C(N)=O)c(Nc3ccc(I)cc3F)c(C)c2=O)c1F [Compound P-2, 1-[[2-(Ethylsulfonylamino)-3-fluoropyridin-4-yl]methyl]-4-(2-fluoro-4-iodoanilino)-5-methyl-6-oxopyridine-3-carboxamide] | 8 | 3 | – | – | – | – | – | –
22 | Cc1c(Nc2ccc(I)cc2F)c(C(N)=O)cn(Cc2ccnc(NS(=O)(=O)NC3(C)CCC3)c2F)c1=O [Compound P-3, 4-(2-Fluoro-4-iodoanilino)-1-[[3-fluoro-2-[(1-methylcyclobutyl)sulfamoylamino]pyridin-4-yl]methyl]-5-methyl-6-oxopyridine-3-carboxamide] | 3 | 37 | 10 | – | – | – | 96 | –
23 | CCS(=O)(=O)Nc1nccc(Cn2cc(C(=O)NOC)c(Nc3ccc(I)cc3F)c(C)c2=O)c1F [Compound P-5] | 11 | 2 | 11 | – | – | – | 31 | –
24 | O=C(NOC[C@H](O)CO)c1ccc(F)c(F)c1Nc1ccc(I)cc1F [Ref-1, N-[(2R)-2,3-Dihydroxypropoxy]-3,4-difluoro-2-(2-fluoro-4-iodoanilino)benzamide, reference compound] | – | 20 | – | – | – | – | – | –
